{"source": "patent US20050176764A1", "about": "“Medicine for treating cancer” (KOWA CO., LTD, priority 2002, published 2005)", "format_in_all_cases": "cell-based", "key": {"HCT-15 (colon cancer)": {"test_system": "HCT-15 (colon cancer)", "experiment": "Cancer cell growth inhibition, WST-1 colorimetry", "settings": "Homo sapiens, HCT-15, 48 hours", "description": "(§1) Cultured human cancer cells were added to a 96-well plate. On the following day, a solution of each of the compounds prepared in Examples 13, 23, 29, 36, and 114 (in five concentrations resulting from 10-fold stepwise dilution: 10^−4, 10^−5, 10^−6, 10^−7, or 10^−8 M) was added, followed by incubation for 48 hours. Subsequently, % growth of the cells was measured through colorimetry by use of a WST-1 (Dojindo) reagent for measurement of cell count. From the measurement data, % growth was calculated by use of the following equation, and 50% growth inhibitory concentration (GI50) was calculated from the dose-response curve of each compound: % growth={[(OD as measured after 48 hours from addition of compound)−(OD at time zero)]/[(OD of control as measured after 48 hours)−(OD at time zero)]}×100."}, "MKN-45 (stomach cancer)": {"test_system": "MKN-45 (stomach cancer)", "experiment": "Cancer cell growth inhibition, WST-1 colorimetry", "settings": "Homo sapiens, MKN-45, 48 hours", "description": "as §1"}, "MKN-74 (stomach cancer)": {"test_system": "MKN-74 (stomach cancer)", "experiment": "Cancer cell growth inhibition, WST-1 colorimetry", "settings": "Homo sapiens, MKN-74, 48 hours", "description": "as §1"}, "MCF-7 (breast cancer)": {"test_system": "MCF-7 (breast cancer)", "experiment": "Cancer cell growth inhibition, WST-1 colorimetry", "settings": "Homo sapiens, MCF7, MCF-7, 48 hours", "description": "as §1"}, "[1]": {"test_system": "cultured human cancer cells", "experiment": "Cancer cell growth inhibition, WST-1 colorimetry, overall statement", "settings": "result in words, 48 hours", "description": "as §1"}, "[2]": {"test_system": "Human umbilical venous endothelial cells (HUVECs)", "experiment": "Gene expression analysis (GeneChip HuGene FL array) in TNFα-stimulated HUVECs", "settings": "Example 10 at 1 μM, TSA at 10 μM", "description": "Human umbilical venous endothelial cells (HUVECs) were placed in 10 cm dishes (3×10^5 cells/dish). Two days thereafter, Trichostatin A (TSA, produced by Upstate) dissolved in dimethyl sulfoxide (DMSO) and the compound prepared in Example 10 dissolved in DMSO were individually added to a final concentrations of 10 μM and 1 μM, respectively. Each sample was stimulated with TNFα (final concentration: 10 ng/mL, Genzyme-Techne). Four hours later, total RNA was extracted with ISOGEN (Nippon Gene Co., Ltd.). The subsequent procedure was performed in accordance with the manufacturer's protocol (Affymetrix). From the thus obtained total RNA, mRNA was purified by a conventional method. cDNA was synthesized from the purified mRNA, and then biotin-labeled cRNA was synthesized by in vitro transcription. The cRNA was purified and subjected to heat treatment for fragmentation. The fragmented cRNA was used in gene expression analysis.\nMethod of gene expression analysis: The thus-prepared fragmented cRNA was injected to a HuGene human FL array (Affymetrix), and allowed to hybridize for 16 hours at 45° C. After washing, streptavidin labeled with phycoerythrin, and biotinylated anti-streptavidin antibody were added to each sample in order to cause reaction. Gene expression information was read by use of a dedicated scanner for GeneChip™ (Hewlett Packard). The thus-obtained information was analyzed with GeneChip Software (Affymetrix) for comparison in terms of level of expression."}, "[3]": {"settings": "out of 52 genes increased twice or more by TNFα"}}, "note": "Structures can show the parent of a compound that is named as a salt.", "data": [{"smiles": "COc1ccc(N(Cc2cncc(-c3cc(OC)c(OC)c(OC)c3)c2)C2CCN(Cc3ccnc(-c4cc(OC)c(OC)c(OC)c4)c3)CC2)cc1", "note": "[Example 13, 4-[N-(4-methoxyphenyl)-N-[[5-(3,4,5-trimethoxyphenyl)pyridin-3-yl]methyl]amino]-1-[[2-(3,4,5-trimethoxyphenyl)pyridin-4-yl]methyl]piperidine Trihydrochloride]", "values": [{"measurement": "GI50", "setting": "HCT-15 (colon cancer)", "value": 800, "unit": "nM"}, {"measurement": "GI50", "setting": "MKN-45 (stomach cancer)", "value": 3000, "unit": "nM"}, {"measurement": "GI50", "setting": "MKN-74 (stomach cancer)", "value": 700, "unit": "nM"}, {"measurement": "GI50", "setting": "MCF-7 (breast cancer)", "value": 700, "unit": "nM"}, {"measurement": "growth inhibitory effect on cultured human cancer cells", "setting": "[1]", "value": "strong growth inhibitory effect"}]}, {"smiles": "COc1cc(OC)cc(N(Cc2ccnc(-c3cc(OC)c(OC)c(OC)c3)c2)C2CCN(Cc3ccnc(-c4cc(OC)c(OC)c(OC)c4)c3)CC2)c1", "note": "[Example 23, 4-[N-(3,5-dimethoxyphenyl)-N-[[2-(3,4,5-trimethoxyphenyl)pyridin-4-yl]methyl]amino]-1-[[2-(3,4,5-trimethoxyphenyl)pyridin-4-yl]methyl]piperidine Trihydrochloride]", "values": [{"measurement": "GI50", "setting": "HCT-15 (colon cancer)", "value": 900, "unit": "nM"}, {"measurement": "GI50", "setting": "MKN-45 (stomach cancer)", "value": 4000, "unit": "nM"}, {"measurement": "GI50", "setting": "MKN-74 (stomach cancer)", "value": 700, "unit": "nM"}, {"measurement": "GI50", "setting": "MCF-7 (breast cancer)", "value": 600, "unit": "nM"}, {"measurement": "growth inhibitory effect on cultured human cancer cells", "setting": "[1]", "value": "strong growth inhibitory effect"}]}, {"smiles": "COc1cc(-c2cc(CN3CCC(N(Cc4ccnc(-c5cc(OC)c(OC)c(OC)c5)c4)c4ccc5c(c4)OCO5)CC3)ccn2)cc(OC)c1OC", "note": "[Example 29, 4-[N-(3,4-methylenedioxyphenyl)-N-[[2-(3,4,5-trimethoxyphenyl)pyridin-4-yl]methyl]amino]-1-[[2-(3,4,5-trimethoxyphenyl)pyridin-4-yl]methyl] piperidine Trihydrochloride]", "values": [{"measurement": "GI50", "setting": "HCT-15 (colon cancer)", "value": 800, "unit": "nM"}, {"measurement": "GI50", "setting": "MKN-45 (stomach cancer)", "value": 3000, "unit": "nM"}, {"measurement": "GI50", "setting": "MKN-74 (stomach cancer)", "value": 400, "unit": "nM"}, {"measurement": "GI50", "setting": "MCF-7 (breast cancer)", "value": 700, "unit": "nM"}, {"measurement": "growth inhibitory effect on cultured human cancer cells", "setting": "[1]", "value": "strong growth inhibitory effect"}]}, {"smiles": "COc1cc(-c2cc(CN3CCC(N(C)Cc4ccnc(-c5cc(OC)c(OC)c(OC)c5)c4)CC3)ccn2)cc(OC)c1OC", "note": "[Example 36, 4-[N-methyl-N-[[2-(3,4,5-trimethoxyphenyl)pyridin-4-yl]methyl]amino]-1-[[2-(3,4,5-trimethoxyphenyl)pyridin-4-yl]methyl]piperidine Tetrahydrochloride]", "values": [{"measurement": "GI50", "setting": "HCT-15 (colon cancer)", "value": 1000, "unit": "nM"}, {"measurement": "GI50", "setting": "MKN-45 (stomach cancer)", "value": 2000, "unit": "nM"}, {"measurement": "GI50", "setting": "MKN-74 (stomach cancer)", "value": 600, "unit": "nM"}, {"measurement": "GI50", "setting": "MCF-7 (breast cancer)", "value": 700, "unit": "nM"}, {"measurement": "growth inhibitory effect on cultured human cancer cells", "setting": "[1]", "value": "strong growth inhibitory effect"}]}, {"smiles": "COc1cc(-c2cncc(CN(c3ccc(SC)cc3)C3CCN(Cc4ccnc(-c5cc(OC)c(OC)c(OC)c5)c4)CC3)c2)cc(OC)c1OC", "note": "[Example 114]", "values": [{"measurement": "GI50", "setting": "HCT-15 (colon cancer)", "value": 800, "unit": "nM"}, {"measurement": "GI50", "setting": "MKN-45 (stomach cancer)", "value": 2000, "unit": "nM"}, {"measurement": "GI50", "setting": "MKN-74 (stomach cancer)", "value": 200, "unit": "nM"}, {"measurement": "GI50", "setting": "MCF-7 (breast cancer)", "value": 600, "unit": "nM"}, {"measurement": "growth inhibitory effect on cultured human cancer cells", "setting": "[1]", "value": "strong growth inhibitory effect"}]}, {"smiles": "CC(/C=C/C(=O)NO)=C\\[C@@H](C)C(=O)c1ccc(N(C)C)cc1", "note": "[TSA, Trichostatin A, reference compound]", "values": [{"measurement": "mRNA expression level of ABC transporter B2", "setting": "[2]; TNFα 10 ng/mL, 4 h", "value": 66}, {"measurement": "mRNA expression level of B94", "setting": "[2]; TNFα 10 ng/mL, 4 h", "value": 924}, {"measurement": "mRNA expression level of BCL3", "setting": "[2]; TNFα 10 ng/mL, 4 h", "value": 198}, {"measurement": "mRNA expression level of Cox-2", "setting": "[2]; TNFα 10 ng/mL, 4 h", "value": 30}, {"measurement": "mRNA expression level of EphrinA1", "setting": "[2]; TNFα 10 ng/mL, 4 h", "value": 113}, {"measurement": "mRNA expression level of Gro1", "setting": "[2]; TNFα 10 ng/mL, 4 h", "value": 855}, {"measurement": "mRNA expression level of I kappa B alpha", "setting": "[2]; TNFα 10 ng/mL, 4 h", "value": 1363}, {"measurement": "mRNA expression level of IAP homolog B", "setting": "[2]; TNFα 10 ng/mL, 4 h", "value": 99}, {"measurement": "mRNA expression level of ICAM-1", "setting": "[2]; TNFα 10 ng/mL, 4 h", "value": 2303}, {"measurement": "mRNA expression level of IFNGR2", "setting": "[2]; TNFα 10 ng/mL, 4 h", "value": 209}, {"measurement": "mRNA expression level of IL-7R", "setting": "[2]; TNFα 10 ng/mL, 4 h", "value": 44}, {"measurement": "mRNA expression level of M-Ras-regulated GEF", "setting": "[2]; TNFα 10 ng/mL, 4 h", "value": 39}, {"measurement": "mRNA expression level of MCP-1", "setting": "[2]; TNFα 10 ng/mL, 4 h", "value": 46}, {"measurement": "mRNA expression level of Na/K-ATPase beta-1", "setting": "[2]; TNFα 10 ng/mL, 4 h", "value": 148}, {"measurement": "mRNA expression level of Nef associated factor 1", "setting": "[2]; TNFα 10 ng/mL, 4 h", "value": 396}, {"measurement": "mRNA expression level of OB-cadherin-2", "setting": "[2]; TNFα 10 ng/mL, 4 h", "value": 62}, {"measurement": "mRNA expression level of RDC1", "setting": "[2]; TNFα 10 ng/mL, 4 h", "value": 21}, {"measurement": "mRNA expression level of Spliceosomal Protein Sap 49", "setting": "[2]; TNFα 10 ng/mL, 4 h", "value": 79}, {"measurement": "mRNA expression level of TRAF1", "setting": "[2]; TNFα 10 ng/mL, 4 h", "value": 262}, {"measurement": "mRNA expression level of VCAM-1", "setting": "[2]; TNFα 10 ng/mL, 4 h", "value": 96}, {"measurement": "mRNA expression level of beta-galactoside alpha-2; 6-sialyltransferase", "setting": "[2]; TNFα 10 ng/mL, 4 h", "value": 19}, {"measurement": "mRNA expression level of caspase-like apoptosis regulatory protein 2 (clarp)", "setting": "[2]; TNFα 10 ng/mL, 4 h", "value": 50}, {"measurement": "mRNA expression level of cytoplasmic antiproteinase 2 (CAP2)", "setting": "[2]; TNFα 10 ng/mL, 4 h", "value": 37}, {"measurement": "mRNA expression level of ets-2", "setting": "[2]; TNFα 10 ng/mL, 4 h", "value": 38}, {"measurement": "mRNA expression level of exodus-1", "setting": "[2]; TNFα 10 ng/mL, 4 h", "value": 1206}, {"measurement": "mRNA expression level of fractalkine", "setting": "[2]; TNFα 10 ng/mL, 4 h", "value": 38}, {"measurement": "mRNA expression level of junB", "setting": "[2]; TNFα 10 ng/mL, 4 h", "value": 123}, {"measurement": "mRNA expression level of lymphotoxin beta", "setting": "[2]; TNFα 10 ng/mL, 4 h", "value": "−40"}, {"measurement": "mRNA expression level of metalloproteinase stromelysin-2", "setting": "[2]; TNFα 10 ng/mL, 4 h", "value": 69}, {"measurement": "mRNA expression level of ninjurin1", "setting": "[2]; TNFα 10 ng/mL, 4 h", "value": 150}, {"measurement": "mRNA expression level of p50-NF-kappa B homolog", "setting": "[2]; TNFα 10 ng/mL, 4 h", "value": 57}, {"measurement": "number of genes whose expression was enhanced", "setting": "[2]; [3]", "value": 6, "unit": "genes"}, {"measurement": "number of genes whose expression was inhibited", "setting": "[2]; [3]", "value": 25, "unit": "genes"}]}]}
